# US20190070165A1, “N-HYDROXYISOQUINOLINEDIONE INHIBITORS OF HBV REPLICATION” (Saint Louis University, priority 2016, published 2019)
# Like-named read-outs stand apart in the source and are kept apart here.
# Experiments:
# HBV replication = HBV replication inhibition assay in HepDES19 cells (strand-preferential q-PCR); assay type: cell-based, Hepatitis B virus; settings: for HBV replication inhibition (qualitative): Table 3, qualitative screen at 20 μM; for EC50: Hepatitis B virus; for HBV replication inhibition / activity: HepDES19 cells
# Method: HBV replication assay. […] Cells were seeded into 6-well plates and incubated in DMEM/F12, 10% fetal bovine serum (FBS), 1% penicillin/streptomycin (P/S) with 1 μg/mL tetracycline. Tetracycline was withdrawn after 24 hours. The test compound was applied to duplicate wells 48 hours later in medium containing a final DMSO concentration of 1%, and medium containing the compound was refreshed daily for the following two days. Cells were harvested and non-encapsidated nucleic acids were digested with micrococcal nuclease (New England Biolabs). HBV DNA was purified from capsids using QIAamp Cador Pathogen Mini Kit (Qiagen) with proteinase K incubation overnight at 37° C. TaqMan PCR was performed for 40 cycles at an annealing temperature of 60° C.
# Thirty-nine HID, HPD, flutimide, and related POH compounds (Structures shown in FIG. 3) were screened for their ability to inhibit HBV replication in HepDES19 cells. […] Inhibition was calculated as the amount of plus-polarity DNA relative to the DMSO treated controls.
# Briefly, HepDES19 were seeded in 12-well plates at 2×10^5 cells per well in the absence of tetracycline. Test compound was applied to cells 48 hours after removal of tetracycline. […] HBV DNA was purified from capsids using a QIAamp pathogen minikit with proteinase K digestion extended to overnight at 37° C. TaqMan PCR was performed for 40 cycles with an annealing temperature of 60° C.
# HSV-1 = HSV-1 replication inhibition assay in Vero cells; assay type: cell-based, herpes simplex virus 1; settings: for log reduction at 5 µM: read-out: HSV-1 suppression (log10 at 5 μM), class symbol
# Method: Thirty-seven compounds were counter-screened for efficacy against HSV-1 to evaluate specificity of the inhibitors and to help determine if the efficacy against HBV replication may be due to an unsuspected indirect effect on the cells. Vero cells infected with HSV-1 at an MOI of 0.1 were treated with 5 μM of compound for 24 hours. Inhibition was calculated as log 10 suppression of plaque forming units compared with DMSO vehicle control.
# Vero cells were maintained DMEM supplemented with 3% newborn calf serum, 3% bovine growth serum, 2 mM L-glutamine, and P/S. Test compounds were applied to the cells in the presence of 0.05% DMSO. The herpes simplex virus 1 (HSV-1) strain used for screening was a de-identified clinical isolate from the Saint Louis University Hospital passaged once in culture.
# Compounds and virus were diluted in phosphate buffered saline (PBS) containing 2% newborn calf serum and 2 mM L-glutamine so that the final concentration of compound was 5 μM. The cells were incubated at 37° C. for 1 hour with the virus containing inoculum, then the inoculum was removed and the wells were washed once in PBS. Compound diluted to 5 μM in supplemented DMEM was added and cells were incubated at 37° C. for an additional 23 hours. The plates were then microscopically inspected for cytopathic effect (CPE) or toxicity and then frozen at −80° C. Virus titers for wells with limited CPE compared to DMSO vehicle-treated controls were then determined by plaque assay on Vero cells. Each experiment was repeated at least once.
# HBV RNaseH [1] = target: T1, HBV RNaseH (Hepatitis B virus genotype D subtype ayw, UniProt P03156); settings: for Inhibition of HBV RNaseH, Oligonucleotide directed cleavage assay: Table 3, compounds at 100, 60 and 20 μM, compounds 1-91 and 138-140 previously reported (Cai et al., 2014); for HBV RNaseH: Table 1, qualitative inhibition in biochemical assay
# T1 sequence (P03156 671-832): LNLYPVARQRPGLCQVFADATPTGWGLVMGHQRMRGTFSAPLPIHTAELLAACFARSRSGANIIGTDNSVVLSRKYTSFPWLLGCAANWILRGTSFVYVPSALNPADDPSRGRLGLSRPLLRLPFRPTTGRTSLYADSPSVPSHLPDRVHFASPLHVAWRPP
# Method: RNaseH expression and purification. […] The enriched extracts were dialyzed into 50 mM HEPES pH 7.3, 300 mM NaCl, 20% glycerol, and 5 mM DTT and stored in liquid nitrogen.
# Oligonucleotide-directed RNA cleavage assay. […] This mixture was incubated with test compounds in 50 mM Tris pH 8.0, 190 mM NaCl, 5 mM MgCl2, 3.5 mM DTT, 0.05% NP40, 6% glycerol, and 1% DMSO at 42° C. for 90 minutes. Cleavage products were resolved by denaturing polyacrylamide gel electrophoresis, detected by autoradiography, and quantified using ImageJ. Non-specific background values were determined from the incorrect oligonucleotide negative control lane and subtracted from all experimental values. IC50 values were then calculated with GraphPad Prism using three-parameter log(inhibitor) vs. response non-linear curve fitting with the curve minimum set to zero to reflect background subtraction.
# The HBV RNaseH inhibition activity of the 16 previously untested compounds was examined using an oligonucleotide-directed cleavage assay. Compounds were incubated with the HBV RNaseH, a ^32P-labeled RNA substrate plus a complementary DNA oligonucleotide and compounds at 100, 60, and 20 μM and the amount of the RNA cleavage products was measured following resolution on an acrylamide gel.
# Briefly, a ^32P-labeled RNA was combined with a DNA oligonucleotide and the RNA:DNA substrate was incubated in the presence of the RNaseH and test compounds in 50 mM tris pH 8.0, 190 mM NaCl, 5 mM MgCl2, 3.5 mM DTT, 0.05% NP40, 6% glycerol, and 1% DMSO at 42° C. for 90 minutes. The products were resolved by gel electrophoresis and detected by audioradioagraphy.
# human RNaseH1 = target: T2, human RNaseH1 (Homo sapiens, UniProt O60930); test: Oligonucleotide-directed RNA cleavage assay, human RNaseH1; assay type: biochemical; settings: for IC50: Table 1, quantitative values; for Human RNaseH1: Table 1, qualitative inhibition; for inhibition of huRNaseH1: compounds at 100, 60 and 20 μM
# T2 construct: made in house; host or cells: E. coli
# T2 sequence (O60930 1-286): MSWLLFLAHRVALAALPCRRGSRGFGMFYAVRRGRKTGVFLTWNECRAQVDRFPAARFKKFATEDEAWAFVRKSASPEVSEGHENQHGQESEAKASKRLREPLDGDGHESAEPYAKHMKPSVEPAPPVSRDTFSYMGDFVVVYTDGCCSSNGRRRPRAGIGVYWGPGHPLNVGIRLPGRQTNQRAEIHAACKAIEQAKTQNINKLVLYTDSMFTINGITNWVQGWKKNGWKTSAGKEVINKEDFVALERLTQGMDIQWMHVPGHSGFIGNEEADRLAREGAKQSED
# Excerpt: RNaseH expression and purification.
# Oligonucleotide-directed RNA cleavage assay.
# HBV RNaseH [2] = target: T1, HBV RNaseH; test: Molecular beacon RNaseH assay; settings: Table 3, 0 to 500 μM
# Method: In this assay, a hairpin DNA oligonucleotide labeled with fluorescein on one end and a quencher on the other is held in a linear conformation by annealing to a complementary RNA; cleavage of the RNA causes the DNA to fold into a hairpin, suppressing fluorescence (FIG. 8A).
# The substrate is a hairpin DNA oligonucleotide with a 5′ fluorescein reporter and a 3′ black hole quencher annealed to a complementary RNA oligonucleotide. The reaction was initiated by adding 5 mM Mg^++, and fluorescence was monitored at 37° C. with a Synergy 4 96-well plate reader. Inhibition was qualitatively determined as a dose-dependent reduction in the rate of substrate degradation.
# [3] = Human alphaherpesvirus 1, 24 h, 5 μM, Vero cells
# [4] = HepDES19, Table 2, qualitative suppression of + and − DNA strands, read-out: EC50 (class symbols)
# [5] = HepDES19, read-out: HBV replication inhibition (EC50, μm)
# [6] = Table 2, HepDES19 cells, read-out: EC50
# [7] = Human alphaherpesvirus 1, Vero, 24 h
SMILES,HBV replication inhibition (qualitative) (HBV replication),"Inhibition of HBV RNaseH, Oligonucleotide directed cleavage assay (HBV RNaseH [1])",log reduction at 5 µM (HSV-1; [3]),also measured
"Cc1cc(C2CCCCC2)n(O)c(=O)c1 [Compound 41, Ciclopirox, reference compound]",− (No inhibition detected at 20 μM),− (No inhibition detected at 100 μM),,"HSV-1 suppression (log10 at 5 μM) (HSV-1; 5 μM, 24 hours, Vero cells, MOI 0.1, plaque forming units vs DMSO): 5.0 log10"
CCOC(=O)C1=CC2C=CC=CC2N(O)C1=O (centres unmarked) [Compound 42],− (No inhibition detected at 20 μM),− (No inhibition detected at 100 μM),< 1,
O=C1C=CC2C=CC=CC2N1O (centres unmarked) [Compound 43],− (No inhibition detected at 20 μM),− (No inhibition detected at 100 μM),< 1,
Cc1cc(C)n(O)c(=O)c1C#N [Compound 44],− (No inhibition detected at 20 μM),− (No inhibition detected at 100 μM),< 1,
O=C1c2cccc3cccc(c23)C(=O)N1O [Compound 45],− (No inhibition detected at 20 μM),− (No inhibition detected at 100 μM),< 1,
Cc1ccc(CC2C(=O)N(O)C(=O)c3ccccc32)cc1 (centres unmarked) [Compound 80],− (No inhibition detected at 20 μM),− (No inhibition detected at 100 μM),< 1,EC50 (HBV replication; [4]): > 20 µM; IC50 (human RNaseH1): > 100 µM
CCCNC(=O)C1C(=O)N(O)C(=O)c2ccccc21 (centres unmarked) [Compound 82],− (No inhibition detected at 20 μM),− (No inhibition detected at 100 μM),< 1,EC50 (HBV replication; [4]): > 20 µM; HBV RNaseH (HBV RNaseH [1]): +/−; Human RNaseH1 (human RNaseH1): +++ (detectable inhibition at 10 μM)
O=C(Nc1ccccc1)C1C(=O)N(O)C(=O)c2ccccc21 (centres unmarked) [Compound 84],,− (No inhibition detected at 100 μM),< 1,"EC50 (HBV replication; [5]): 6.5 ± 4.5 µM; Inhibition of HBV RNaseH, Molecular Beacon cleavage assay (HBV RNaseH [2]): − (No inhibition detected at 500 μM); HBV RNaseH (HBV RNaseH [1]): +/−; IC50 (human RNaseH1): 3.7 µM"
O=C(NCc1ccccc1)C1C(=O)N(O)C(=O)c2ccccc21 (centres unmarked) [Compound 85],,− (No inhibition detected at 100 μM),,"EC50 (HBV replication; [5]): 6.5 ± 1.5 µM; EC50 (HBV replication; [6]): 6.5 µM; log reduction at 5 µM (HSV-1; [7]): < 1; Inhibition of HBV RNaseH, Molecular Beacon cleavage assay (HBV RNaseH [2]): − (No inhibition detected at 500 μM); HBV RNaseH (HBV RNaseH [1]): +/−; IC50 (human RNaseH1): 3.9 µM"
COc1ccc(CNC(=O)C2C(=O)N(O)C(=O)c3ccccc32)cc1 (centres unmarked) [Compound 90],,− (No inhibition detected at 100 μM),< 1,"EC50 (HBV replication; [5]): 19 ± 0.9 µM; EC50 (HBV replication; [6]): 18 µM; Inhibition of HBV RNaseH, Molecular Beacon cleavage assay (HBV RNaseH [2]): − (No inhibition detected at 500 μM); Human RNaseH1 (human RNaseH1): ++ (detectable inhibition at 20 μM)"
O=C1c2ccc3ccccc3c2C(=O)N1O [Compound 128],,− (No inhibition detected at 100 μM),< 1,
O=C(O)c1nc(Cl)c2ccccc2c1O [Compound 132],− (No inhibition detected at 20 μM),− (No inhibition detected at 100 μM),,
O=C1CCC(=O)N1O [Compound 139],− (No inhibition detected at 20 μM),− (No inhibition detected at 100 μM),,HBV replication inhibition / activity (HBV replication): inactive
CC1=C(C#N)C(=O)NC(=O)C1Cc1ccc(-c2ccccc2)o1 (centres unmarked) [Compound 140],− (No inhibition detected at 20 μM),− (No inhibition detected at 100 μM),< 1,
"CC1CC(=O)N(O)C(CC(C)CC(C)(C)C)C1 (centres unmarked) [Compound 191, Piroctone olamine, reference compound]",− (No inhibition detected at 20 μM),− (No inhibition detected at 100 μM),,
"Oc1nc2ccccc2nc1O [Compound 198, 2,3-dihydroxy-quinoxaline]",− (No inhibition detected at 20 μM),− (No inhibition detected at 100 μM),< 1,
NN1C(=O)Cc2ccccc2C1=O [Compound 204],− (No inhibition detected at 20 μM),− (No inhibition detected at 100 μM),< 1,HBV replication inhibition / activity (HBV replication): inactive; inhibition of huRNaseH1 (human RNaseH1): detectably inhibited
Nc1cccc(O)n1 [Compound 206],− (No inhibition detected at 20 μM),− (No inhibition detected at 100 μM),< 1,inhibition of huRNaseH1 (human RNaseH1): detectably inhibited
O=C1C(=O)N(O)C2CCCCC2N1O (centres unmarked) [Compound 217],− (No inhibition detected at 20 μM),− (No inhibition detected at 100 μM),,log reduction at 5 µM (HSV-1; [7]): < 1; inhibition of huRNaseH1 (human RNaseH1): detectably inhibited
O=C1Cn2c(cc3ccccc32)C(=O)N1O [Compound 236],− (No inhibition detected at 20 μM),− (No inhibition detected at 100 μM),< 1,
O=C1Cn2c(cc3cc(Cl)ccc32)C(=O)N1O [Compound 237],− (No inhibition detected at 20 μM),− (No inhibition detected at 100 μM),< 1,
COc1ccc2c(c1)cc1n2CC(=O)N(O)C1=O [Compound 238],− (No inhibition detected at 20 μM),− (No inhibition detected at 100 μM),< 1,
O=C1Cn2c(cc3ccccc32)C(=O)N1 [Compound 239],− (No inhibition detected at 20 μM),− (No inhibition detected at 100 μM),< 1,
O=C1Cn2c(cc3cc(O)ccc32)C(=O)N1O [Compound 240],− (No inhibition detected at 20 μM),− (No inhibition detected at 100 μM),< 1,inhibition of huRNaseH1 (human RNaseH1): detectably inhibited
O=C1Cn2c(cc3cc(F)ccc32)C(=O)N1O [Compound 241],− (No inhibition detected at 20 μM),− (No inhibition detected at 100 μM),< 1,
